One assay deals with T1, CDK4-CYCLIND1 (Homo sapiens, UniProt P11802).
T1 construct: purchased Invitrogen
As to the kind of experiment: Inhibition assay, microfluidic LabChip (Nanosyn). In kind it is biochemical. Conditions: Table 2; ATP 200 μM; read-out: CDK4 IC50. As for the experimental part:
(§1) The reaction was terminated by the addition of EDTA. The plates were analyzed using a Caliper LabChip 3000.
(§2) Additional inhibition assays were performed as described above.

A further assay addresses T2, CDK6-CYCLIND3 (Homo sapiens, UniProt Q00534).
T2 construct: purchased Carna
Briefly: Inhibition assay, microfluidic LabChip (Nanosyn). In kind it is biochemical. The conditions noted are these: ATP 300 μM. How it is done: as §1, §2

Like-named read-outs stand apart in the source and are kept apart here.

T2 sequence (Q00534 whole entry): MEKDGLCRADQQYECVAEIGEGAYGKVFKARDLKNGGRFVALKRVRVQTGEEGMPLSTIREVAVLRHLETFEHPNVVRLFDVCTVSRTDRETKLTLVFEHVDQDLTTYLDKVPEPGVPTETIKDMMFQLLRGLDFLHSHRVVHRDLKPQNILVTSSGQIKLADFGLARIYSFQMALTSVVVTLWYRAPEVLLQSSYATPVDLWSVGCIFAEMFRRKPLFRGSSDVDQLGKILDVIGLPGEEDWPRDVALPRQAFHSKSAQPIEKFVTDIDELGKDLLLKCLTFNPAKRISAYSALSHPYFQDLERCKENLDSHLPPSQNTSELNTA
T2 sequence (P30281 whole entry partner): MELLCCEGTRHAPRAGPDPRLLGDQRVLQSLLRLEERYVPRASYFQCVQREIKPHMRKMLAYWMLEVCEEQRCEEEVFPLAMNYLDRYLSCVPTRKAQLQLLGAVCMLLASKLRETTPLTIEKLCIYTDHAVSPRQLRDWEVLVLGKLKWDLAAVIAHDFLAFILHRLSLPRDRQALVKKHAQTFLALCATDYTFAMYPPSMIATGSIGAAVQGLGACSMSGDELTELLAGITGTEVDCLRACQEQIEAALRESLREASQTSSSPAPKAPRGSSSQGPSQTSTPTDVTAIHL
T1 sequence (P11802 whole entry): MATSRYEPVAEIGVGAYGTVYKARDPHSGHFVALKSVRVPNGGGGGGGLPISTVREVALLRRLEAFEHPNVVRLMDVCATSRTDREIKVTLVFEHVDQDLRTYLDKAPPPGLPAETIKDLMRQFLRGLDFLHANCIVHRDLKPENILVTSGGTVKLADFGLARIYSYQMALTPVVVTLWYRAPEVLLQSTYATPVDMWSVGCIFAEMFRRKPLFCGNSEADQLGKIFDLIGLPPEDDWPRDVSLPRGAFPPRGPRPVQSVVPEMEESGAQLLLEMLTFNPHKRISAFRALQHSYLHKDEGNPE
T1 sequence (P24385 whole entry partner): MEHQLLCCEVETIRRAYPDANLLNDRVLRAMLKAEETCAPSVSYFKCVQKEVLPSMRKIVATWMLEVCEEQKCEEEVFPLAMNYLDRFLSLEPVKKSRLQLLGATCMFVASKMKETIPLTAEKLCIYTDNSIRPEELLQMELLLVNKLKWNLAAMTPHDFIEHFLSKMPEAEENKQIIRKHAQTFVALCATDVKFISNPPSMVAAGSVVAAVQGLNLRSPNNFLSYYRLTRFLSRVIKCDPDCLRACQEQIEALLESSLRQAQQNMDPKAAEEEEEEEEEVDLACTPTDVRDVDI

Broadly, the IC50 is the point on the concentration scale where inhibition reaches its midpoint. Regarding `CN(C)C(=O)c1c(F)c2cnc(Nc3ccc(N4CCNCC4)cn3)nc2n1C1CCCC1` [Compound A1, 7-cyclopentyl-5-fluoro-N,N-dimethyl-2-((5-(piperazin-1-yl)pyridin-2-yl)amino)-7H-pyrrolo[2,3-d]pyrimidine-6-carboxamide], the concentration for half-maximal inhibition (IC50) at CDK4-CYCLIND1 was found to be 38.7 nM; on CDK6-CYCLIND3 (Table 2, read-out: CDK6 IC50) it was 54.3 nM.

As to `CN1CCN(c2ccc(Nc3ncc4c(F)c(C(=O)N(C)C)n(C5CCCC5)c4n3)nc2)CC1` [Compound A2], the half-inhibitory concentration (IC50) at CDK4-CYCLIND1 is 37.9 nM; on CDK6-CYCLIND3 (Table 2, read-out: CDK6 IC50), 54.3 nM.

On to `CN(C)CCOc1ccc(Nc2ncc3c(F)c(C(=O)N(C)C)n(C4CCCC4)c3n2)nc1` [Compound A3, 7-cyclopentyl-2-((5-(2-(dimethylamino)ethoxy)pyridin-2-yl)amino)-5-fluoro-N,N-dimethyl-7H-pyrrolo[2,3-d]pyrimidine-6-carboxamide], for which the concentration for half-maximal inhibition (IC50) at CDK4-CYCLIND1 was 48 nM; at CDK6-CYCLIND3 (Table 2, read-out: CDK6 IC50) it was 64.5 nM.

`CN(C)CCOc1ccc(Nc2ncc3cc(C(=O)N(C)C)n(C4CCCC4)c3n2)nc1` [Compound A4, 7-cyclopentyl-2-((5-(2-(dimethylamino)ethoxy)pyridin-2-yl)amino)-N,N-dimethyl-7H-pyrrolo[2,3-d]pyrimidine-6-carboxamide]: the half-inhibitory concentration (IC50) on CDK4-CYCLIND1 is 18.9 nM; at CDK6-CYCLIND3 (Table 2, read-out: CDK6 IC50), 34.9 nM.

For `CN(C)C(=O)c1cc2cnc(Nc3ccc(OCCN4CCCC4)cn3)nc2n1C1CCCC1` [Compound A5, 7-cyclopentyl-N,N-dimethyl-2-((5-(2-(pyrrolidin-1-yl)ethoxy)pyridin-2-yl)amino)-7H-pyrrolo[2,3-d]pyrimidine-6-carboxamide], the half-inhibitory concentration (IC50) at CDK4-CYCLIND1 is 19.3 nM; on CDK6-CYCLIND3 (Table 2, read-out: CDK6 IC50), 50.6 nM.

Consider `CN(C)C(=O)c1cc2cnc(Nc3ccc(OCCN4CCCCC4)cn3)nc2n1C1CCCC1` [Compound A6, 7-cyclopentyl-N,N-dimethyl-2-((5-(2-(piperidin-1-yl)ethoxy)pyridin-2-yl)amino)-7H-pyrrolo[2,3-d]pyrimidine-6-carboxamide], for which the IC50 came to 15.2 nM on CDK4-CYCLIND1 and 36.4 nM on CDK6-CYCLIND3 (Table 2, read-out: CDK6 IC50).

Consider `CN(C)CCOc1ccc(Nc2ncc3c(F)c(C(=O)N(C)C)n(C4CCCC4)c3n2)cc1` [Compound A7, 7-cyclopentyl-2-((4-(2-(dimethylamino)ethoxy)phenyl)amino)-5-fluoro-N,N-dimethyl-7H-pyrrolo[2,3-d]pyrimidine-6-carboxamide], for which the half-maximal inhibitory concentration (IC50) at CDK4-CYCLIND1 was determined as 22.2 nM; at CDK6-CYCLIND3 (Table 2, read-out: CDK6 IC50), 63 nM.

Take `CN(C)C(=O)c1cc2cnc(Nc3ccc(OCCN4CCCC4)nc3)nc2n1C1CCCC1` [Compound A8, 7-cyclopentyl-N,N-dimethyl-2-((6-(2-(pyrrolidin-1-yl)ethoxy)pyridin-3-yl)amino)-7H-pyrrolo[2,3-d]pyrimidine-6-carboxamide]: the half-maximal inhibitory concentration (IC50) at CDK4-CYCLIND1 came to 4.98 nM; on CDK6-CYCLIND3 (Table 2, read-out: CDK6 IC50) it was 23.6 nM.

`CN(C)C(=O)c1cc2cnc(Nc3ccc(N4CCN5CCC4CC5)cn3)nc2n1C1CCCC1` [Compound A9, 2-((5-(1,4-diazabicyclo[3.2.2]nonan-4-yl)pyridin-2-yl)amino)-7-cyclopentyl-N,N-dimethyl-7H-pyrrolo[2,3-d]pyrimidine-6-carboxamide]: the half-inhibitory concentration (IC50) is 21 nM at CDK4-CYCLIND1 and 54.9 nM at CDK6-CYCLIND3 (Table 2, read-out: CDK6 IC50).

Consider `CN1CCN(c2ccc(Nc3ncc4cc(C(=O)N(C)C)n(C56CC(C5)C6)c4n3)cc2)CC1` [Compound A14, 7-(bicyclo[1.1.1]pentan-1-yl)-N,N-dimethyl-2-((4-(4-methylpiperazin-1-yl)phenyl)amino)-7H-pyrrolo[2,3-d]pyrimidine-6-carboxamide], for which, on CDK6-CYCLIND3 (CDK6 IC50, Table 2), the IC50 came out at 7.08 nM.

As for `CC(C)N1CCN(c2ccc(Nc3ncc4cc(C(=O)N(C)C)n(C56CC(C5)C6)c4n3)cc2)CC1` [Compound A37, 7-(bicyclo[1.1.1]pentan-1-yl)-2-((4-(4-isopropylpiperazin-1-yl)phenyl)amino)-N,N-dimethyl-7H-pyrrolo[2,3-d]pyrimidine-6-carboxamide], on CDK4-CYCLIND1, the 50% inhibitory concentration (IC50) stood at 52000 nM.
